Laboratory results taken from PubChem BioAssay (NCI).
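All cell lines were grown in 96-well plates and treated with compound for 48 hours. Here, GI50 denotes the concentration required for 50% inhibition of growth. At the TGI there is no net growth.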

What was measured:
Assay in all cases: NCI-60 cell line screen, 48 h
786-0 renal = tested on: 786-0 renal
A498 renal = tested on: A498 renal
A549 NSCLC = tested on: A549 NSCLC
ACHN renal = tested on: ACHN renal
BT-549 breast = tested on: BT-549 breast
CAKI-1 renal = tested on: CAKI-1 renal
CCRF-CEM leukemia = tested on: CCRF-CEM leukemia
COLO 205 colon = tested on: COLO 205 colon
DU-145 prostate = tested on: DU-145 prostate
EKVX NSCLC = tested on: EKVX NSCLC
HCC-2998 colon = tested on: HCC-2998 colon
HCT-116 colon = tested on: HCT-116 colon
HCT-15 colon = tested on: HCT-15 colon
HL-60(TB) leukemia = tested on: HL-60(TB) leukemia
HOP-62 NSCLC = tested on: HOP-62 NSCLC
HOP-92 NSCLC = tested on: HOP-92 NSCLC
HS 578T breast = tested on: HS 578T breast
HT29 colon = tested on: HT29 colon
IGROV1 ovarian = tested on: IGROV1 ovarian
K-562 leukemia = tested on: K-562 leukemia
KM12 colon = tested on: KM12 colon
LOX IMVI melanoma = tested on: LOX IMVI melanoma
M14 melanoma = tested on: M14 melanoma
MALME-3M melanoma = tested on: MALME-3M melanoma
MCF7 breast = tested on: MCF7 breast
MDA-MB-231 breast = tested on: MDA-MB-231 breast
MDA-MB-435 = tested on: MDA-MB-435
MOLT-4 leukemia = tested on: MOLT-4 leukemia
NCI-H226 lung = tested on: NCI-H226 lung
NCI-H23 lung = tested on: NCI-H23 lung
NCI-H460 lung = tested on: NCI-H460 lung
NCI-H522 lung = tested on: NCI-H522 lung
NCI/ADR-RES ovarian = tested on: NCI/ADR-RES ovarian
OVCAR-3 ovarian = tested on: OVCAR-3 ovarian
OVCAR-4 ovarian = tested on: OVCAR-4 ovarian
OVCAR-5 ovarian = tested on: OVCAR-5 ovarian
OVCAR-8 ovarian = tested on: OVCAR-8 ovarian
PC-3 prostate = tested on: PC-3 prostate
RPMI-8226 leukemia = tested on: RPMI-8226 leukemia
SF-268 CNS = tested on: SF-268 CNS
SF-295 CNS = tested on: SF-295 CNS
SF-539 CNS = tested on: SF-539 CNS
SK-MEL-2 melanoma = tested on: SK-MEL-2 melanoma
SK-MEL-28 melanoma = tested on: SK-MEL-28 melanoma
SK-MEL-5 melanoma = tested on: SK-MEL-5 melanoma
SK-OV-3 ovarian = tested on: SK-OV-3 ovarian
SN12C renal = tested on: SN12C renal
SNB-19 CNS = tested on: SNB-19 CNS
SNB-75 CNS = tested on: SNB-75 CNS
SR leukemia = tested on: SR leukemia
SW-620 colon = tested on: SW-620 colon
T-47D breast = tested on: T-47D breast
TK-10 renal = tested on: TK-10 renal
U251 CNS = tested on: U251 CNS
UACC-257 melanoma = tested on: UACC-257 melanoma
UACC-62 melanoma = tested on: UACC-62 melanoma

Cc1nc(N)sc1-c1csc(Nc2ccc(C(F)(F)F)cc2)n1
GI50 (786-0 renal): 4.41 µM
TGI (786-0 renal): 17.5 µM
GI50 (A498 renal): 11.9 µM
TGI (A498 renal): 25.1 µM
GI50 (A549 NSCLC): 7.34 µM
TGI (A549 NSCLC): 35.8 µM
GI50 (ACHN renal): 2.75 µM
TGI (ACHN renal): 13.9 µM
GI50 (BT-549 breast): 2.03 µM
TGI (BT-549 breast): 6.75 µM
GI50 (CAKI-1 renal): 3.62 µM
TGI (CAKI-1 renal): 17.5 µM
GI50 (CCRF-CEM leukemia): 3.22 µM
TGI (CCRF-CEM leukemia): 53 µM
GI50 (COLO 205 colon): 11.9 µM
TGI (COLO 205 colon): 36.9 µM
GI50 (DU-145 prostate): 4.59 µM
TGI (DU-145 prostate): 17.7 µM
GI50 (EKVX NSCLC): 3.83 µM
TGI (EKVX NSCLC): 17.6 µM
GI50 (HCC-2998 colon): 4.66 µM
TGI (HCC-2998 colon): 17.3 µM
GI50 (HCT-116 colon): 3.36 µM
TGI (HCT-116 colon): 16 µM
GI50 (HCT-15 colon): 3.02 µM
TGI (HCT-15 colon): 11.9 µM
GI50 (HL-60(TB) leukemia): 13.2 µM
TGI (HL-60(TB) leukemia): 32.2 µM
GI50 (HOP-62 NSCLC): 7.86 µM
TGI (HOP-62 NSCLC): 26.4 µM
GI50 (HOP-92 NSCLC): 2.63 µM
TGI (HOP-92 NSCLC): 15 µM
GI50 (HS 578T breast): 2.84 µM
TGI (HS 578T breast): 23.6 µM
GI50 (HT29 colon): 2.49 µM
TGI (HT29 colon): 7.09 µM
GI50 (IGROV1 ovarian): 2.01 µM
TGI (IGROV1 ovarian): 14.7 µM
GI50 (K-562 leukemia): 3.27 µM
TGI (K-562 leukemia): 31 µM
GI50 (KM12 colon): 3.55 µM
TGI (KM12 colon): 14.5 µM
GI50 (LOX IMVI melanoma): 2.44 µM
TGI (LOX IMVI melanoma): 9.9 µM
GI50 (M14 melanoma): 3.25 µM
TGI (M14 melanoma): 14.8 µM
GI50 (MALME-3M melanoma): 4.11 µM
TGI (MALME-3M melanoma): 17.6 µM
GI50 (MCF7 breast): 2.65 µM
TGI (MCF7 breast): 16 µM
GI50 (MDA-MB-231 breast): 3.45 µM
TGI (MDA-MB-231 breast): 17.5 µM
GI50 (MDA-MB-435): 4.43 µM
TGI (MDA-MB-435): 17.4 µM
GI50 (MOLT-4 leukemia): 2.71 µM
TGI (MOLT-4 leukemia): 21.1 µM
GI50 (NCI-H226 lung): 2.72 µM
TGI (NCI-H226 lung): 24.3 µM
GI50 (NCI-H23 lung): 5.57 µM
TGI (NCI-H23 lung): 21.7 µM
GI50 (NCI-H460 lung): 3.44 µM
TGI (NCI-H460 lung): 15.7 µM
GI50 (NCI-H522 lung): 4.75 µM
TGI (NCI-H522 lung): 18.7 µM
GI50 (NCI/ADR-RES ovarian): 5.36 µM
TGI (NCI/ADR-RES ovarian): 21 µM
GI50 (OVCAR-3 ovarian): 4.41 µM
TGI (OVCAR-3 ovarian): 17.3 µM
GI50 (OVCAR-4 ovarian): 3.63 µM
TGI (OVCAR-4 ovarian): 16.7 µM
GI50 (OVCAR-5 ovarian): 4.42 µM
TGI (OVCAR-5 ovarian): 18.9 µM
GI50 (OVCAR-8 ovarian): 11.1 µM
TGI (OVCAR-8 ovarian): 25.6 µM
GI50 (PC-3 prostate): 4.12 µM
TGI (PC-3 prostate): 22.2 µM
GI50 (RPMI-8226 leukemia): 3.98 µM
TGI (RPMI-8226 leukemia): 72.3 µM
GI50 (SF-268 CNS): 6.75 µM
TGI (SF-268 CNS): 22.6 µM
GI50 (SF-295 CNS): 3.08 µM
TGI (SF-295 CNS): 15.1 µM
GI50 (SF-539 CNS): 6.69 µM
TGI (SF-539 CNS): 20 µM
GI50 (SK-MEL-2 melanoma): 1.76 µM
TGI (SK-MEL-2 melanoma): 16.4 µM
GI50 (SK-MEL-28 melanoma): 10.2 µM
TGI (SK-MEL-28 melanoma): 21.9 µM
GI50 (SK-MEL-5 melanoma): 3.32 µM
TGI (SK-MEL-5 melanoma): 11.9 µM
GI50 (SK-OV-3 ovarian): 16.4 µM
TGI (SK-OV-3 ovarian): 33.4 µM
GI50 (SN12C renal): 6.72 µM
TGI (SN12C renal): 21 µM
GI50 (SNB-19 CNS): 11.9 µM
TGI (SNB-19 CNS): 24.8 µM
GI50 (SNB-75 CNS): 3.41 µM
TGI (SNB-75 CNS): 16.9 µM
GI50 (SR leukemia): 3.6 µM
TGI (SR leukemia): 24.2 µM
GI50 (SW-620 colon): 4.92 µM
TGI (SW-620 colon): 19.5 µM
GI50 (T-47D breast): 1.65 µM
TGI (T-47D breast): 10.1 µM
GI50 (TK-10 renal): 8.73 µM
TGI (TK-10 renal): 21.4 µM
GI50 (U251 CNS): 7.17 µM
TGI (U251 CNS): 26.2 µM
GI50 (UACC-257 melanoma): 9.37 µM
TGI (UACC-257 melanoma): 22.1 µM
GI50 (UACC-62 melanoma): 8.61 µM
TGI (UACC-62 melanoma): 21 µM
